Laboratory results: US20020155192A1, “Yeast transport isoforms” (priority 2000, published 2002)

Key:
Type in all cases: biochemical
Odc2p = target: T1, Odc2p (Saccharomyces cerevisiae, UniProt Q99297); assay: Effect of inhibitors and external compounds on the [14C]oxoglutarate/oxoglutarate exchange by proteoliposomes reconstituted with Odc2p; settings: Odc2p; for inhibition of [14C]oxoglutarate/oxoglutarate exchange (in words): Table III
T1 construct: made in house; host or cells: S. cerevisiae odc1Δodc2Δ (YPH499 background) carrying pYES2-based pODC2; purified from mitochondria on Ni-NTA agarose
T1 sequence (Q99297 1-307): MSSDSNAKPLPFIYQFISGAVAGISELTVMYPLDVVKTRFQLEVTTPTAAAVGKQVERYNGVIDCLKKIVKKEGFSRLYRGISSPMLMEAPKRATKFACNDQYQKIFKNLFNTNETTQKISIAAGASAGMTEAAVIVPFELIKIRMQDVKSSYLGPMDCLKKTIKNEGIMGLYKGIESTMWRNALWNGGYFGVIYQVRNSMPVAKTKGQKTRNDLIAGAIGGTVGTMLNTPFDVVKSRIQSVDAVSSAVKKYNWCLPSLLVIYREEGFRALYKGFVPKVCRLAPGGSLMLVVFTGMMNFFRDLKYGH

Odc1p [1] = target: T2, Odc1p (Saccharomyces cerevisiae, UniProt Q03028); assay: Effect of inhibitors and external compounds on the [14C]oxoglutarate/oxoglutarate exchange by proteoliposomes reconstituted with Odc1p; settings: Odc1p; for Inhibition (%) of [14C]oxoglutarate/oxoglutarate exchange: 20 mM internal oxoglutarate, 0.4 mM [14C]oxoglutarate, 45 seconds, inhibitors 4 mM, except mercurials 10 μM, carboxyatractyloside 0.1 mM, N-ethylmaleimide and α-cyanocinnamate 2 mM; for inhibition of [14C]oxoglutarate/oxoglutarate exchange (in words): Table III
T2 construct: made in house; host or cells: S. cerevisiae odc1Δodc2Δ (YPH499 background) carrying pYES2-based pODC1; purified from mitochondria on Ni-NTA agarose
T2 sequence (Q03028 1-310): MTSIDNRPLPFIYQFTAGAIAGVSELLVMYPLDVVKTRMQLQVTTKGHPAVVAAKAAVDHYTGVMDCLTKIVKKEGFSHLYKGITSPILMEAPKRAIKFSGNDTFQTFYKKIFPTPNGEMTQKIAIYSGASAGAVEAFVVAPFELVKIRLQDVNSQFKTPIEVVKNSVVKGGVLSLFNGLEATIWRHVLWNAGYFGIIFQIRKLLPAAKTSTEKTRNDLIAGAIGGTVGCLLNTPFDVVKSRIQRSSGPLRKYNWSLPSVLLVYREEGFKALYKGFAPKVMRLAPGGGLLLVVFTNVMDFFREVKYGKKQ

Odc1p [2] = target: T2, Odc1p; assay: Efflux of [14C]oxoglutarate from proteoliposomes reconstituted with recombinant Odc1p; settings: 10 mM oxoglutarate with 30 mM pyridoxal 5′-phosphate and 10 mM bathophenanthroline added together
Description: FIG. 4. Efflux of [^14C]oxoglutarate from proteoliposomes. Proteoliposomes were reconstituted with recombinant Odc1p in the presence of 20 mM oxoglutarate, and then the internal substrate pool was labelled by carrier-mediated exchange equilibration. After removal of external substrate by Sephadex G-75 chromatography, the efflux of [^14C]oxoglutarate was started by adding buffer F alone (●) or 10 mM oxoglutarate (▪), or 10 mM oxoglutarate, 30 mM pyridoxal 5′-phosphate and 10 mM bathophenanthroline (□) in the same buffer.
External substrate was removed from proteoliposomes on a Sephadex G-75 column preequilibrated with buffer F (50 mM NaCl and 10 mM PIPES, pH 7.0). […] The external radioactivity was removed on Sephadex G-75 and the internal radioactivity was measured. […] The initial rate of transport was calculated in mmol/min per g protein from the time course of isotope equilibration (13). […] For efflux measurements, the internal substrate pool of the proteoliposomes was made radioactive by carrier-mediated exchange equilibration (13) with 0.1 mM [^14C]oxoglutarate added at high specific radioactivity. After 60 min, the residual external radioactivity was removed by passing the proteoliposomes again through a column of Sephadex G-75. […]

Compound: c1ccc(-c2ccnc3c2ccc2c(-c4ccccc4)ccnc23)cc1 [Bathophenanthroline]
- Inhibition (%) of [14C]oxoglutarate/oxoglutarate exchange (Odc2p; 20 mM internal oxoglutarate, 0.4 mM [14C]oxoglutarate, 45 seconds, inhibitors 4 mM, except mercurials 10 μM, carboxyatractyloside 0.1 mM, N-ethylmaleimide and α-cyanocinnamate 2 mM): 89%
- inhibition of [14C]oxoglutarate/oxoglutarate exchange (in words) (Odc2p): inhibited strongly
- Inhibition (%) of [14C]oxoglutarate/oxoglutarate exchange (Odc1p [1]): 97%
- inhibition of [14C]oxoglutarate/oxoglutarate exchange (in words) (Odc1p [1]): inhibited strongly
- effect on efflux of [14C]oxoglutarate induced by external oxoglutarate (in words) (Odc1p [2]): prevented completely

Compound: Cc1ncc(COP(=O)(O)O)c(C=O)c1O [Pyridoxal 5′-phosphate]
- inhibition of [14C]oxoglutarate/oxoglutarate exchange (in words) (Odc2p): inhibited strongly
- Inhibition (%) of [14C]oxoglutarate/oxoglutarate exchange (Odc1p [1]): 92%
- inhibition of [14C]oxoglutarate/oxoglutarate exchange (in words) (Odc1p [1]): inhibited strongly
- effect on efflux of [14C]oxoglutarate induced by external oxoglutarate (in words) (Odc1p [2]): prevented completely
